Measurements from EP0308189B1, “Skin cleansing toilet bar with low moisture content” (THE PROCTER & GAMBLE COMPANY, priority 1987, dated 1989).

System: skin epidermis

Relative Skin Barrier Penetration Value: 40
Total mg Water Penetrating the Skin in 24 Hours: 60.3 ± 17.7 mg
Substance: Cocoyl Isethionate
